According to patent US12161722B2, “Bifunctional heterocyclic compound having BTK degradation function via ubiquitin proteasome pathway, and use thereof” (KOREA RESEARCH INSTITUTE OF CHEMICAL TECHNOLOGY, priority 2021, dated 2024):

What follows are compounds tested against T1, WT BTK protein (Homo sapiens, UniProt Q06187) (assay: BTK protein degradation assay (Western blotting), WT BTK). Conditions: concentration range accounting for 50% degradation of WT BTK protein, TMD-8 or RAMOS cells, 24 hours.
T1 construct: measured for intracellular BTK protein levels by Western blotting; endogenous in cells; host or cells: TMD-8 or RAMOS cells
T1 sequence (Q06187 whole entry): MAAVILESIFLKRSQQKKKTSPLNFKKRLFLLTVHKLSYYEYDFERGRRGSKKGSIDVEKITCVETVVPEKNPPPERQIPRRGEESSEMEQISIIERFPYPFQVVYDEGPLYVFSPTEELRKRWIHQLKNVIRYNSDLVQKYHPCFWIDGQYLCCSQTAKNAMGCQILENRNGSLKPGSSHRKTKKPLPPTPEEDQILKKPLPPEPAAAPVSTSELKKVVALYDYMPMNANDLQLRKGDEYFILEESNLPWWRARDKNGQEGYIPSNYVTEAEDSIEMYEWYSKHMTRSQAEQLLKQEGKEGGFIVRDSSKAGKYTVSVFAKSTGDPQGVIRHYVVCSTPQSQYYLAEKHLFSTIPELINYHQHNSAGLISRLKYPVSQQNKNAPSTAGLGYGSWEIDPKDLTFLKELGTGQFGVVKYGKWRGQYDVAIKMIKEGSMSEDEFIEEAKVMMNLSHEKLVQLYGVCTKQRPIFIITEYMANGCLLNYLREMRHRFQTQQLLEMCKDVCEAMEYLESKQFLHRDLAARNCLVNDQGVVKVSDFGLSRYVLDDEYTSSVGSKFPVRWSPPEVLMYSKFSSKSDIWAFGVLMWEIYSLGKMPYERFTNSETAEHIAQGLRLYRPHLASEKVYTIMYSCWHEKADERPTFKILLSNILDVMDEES
Assay type: cell-based
Method in brief: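 TMD-8 cells (1×10^6 cells/mL) treated 24 h with compound serial dilutions, then lysed in RIPA. Equal protein loads analysed by Western blot for BTK with GAPDH/β-actin as loading controls; activity binned by concentration giving 50% WT BTK degradation.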

Row | DC50 [nM] | Structure (SMILES)
1 | 0.1 to 10 | Cc1cccc(C)c1Nc1nn(C)c2nc(Nc3ccc4c(c3)CN(C3CCN(CC5CN(c6ccc7c(c6)C(=O)N(C6CCC(=O)NC6=O)C7=O)C5)CC3)CC4)ncc12 (stereo not shown) [Compound 138, 5-(3-((4-(7-((3-((2,6-Dimethylphenyl)amino)-1-methyl-1H-pyrazolo[3,4-d]pyrimidin-6-yl)amino)-3,4-dihydroisoquinolin-2 (1H)-yl)piperidin-1-yl)methyl)azetidin-1-yl)-2-(2,6-dioxopiperidin-3-yl)isoindoline-1,3-dione]
2 | 0.1 to 10 | Cc1cccc(C)c1Nc1nn(C)c2nc(Nc3ccc4c(c3)CN(C3CCN(CC5CCN(c6ccc7c(c6)C(=O)N(C6CCC(=O)NC6=O)C7=O)CC5)CC3)CC4)ncc12 (stereo not shown) [Compound 139, 5-(4-((4-(7-((3-((2,6-Dimethylphenyl)amino)-1-methyl-1H-pyrazolo[3,4-d]pyrimidin-6-yl)amino)-3,4-dihydroisoquinolin-2 (1H)-yl)piperidin-1-yl)methyl)piperidin-1-yl)-2-(2,6-dioxopiperidin-3-yl)isoindoline-1,3-dione]
3 | 0.1 to 10 | Cc1cccc(C)c1Nc1nn(C)c2nc(Nc3ccc4c(c3)CN(C3CCN(C[C@H]5CCCN(c6ccc7c(c6)C(=O)N(C6CCC(=O)NC6=O)C7=O)C5)CC3)CC4)ncc12 (stereo partly drawn) [Compound 140, 5-((R)-3-((4-(7-((3-((2,6-dimethylphenyl)amino)-1-methyl-1H-pyrazolo[3,4-d]pyrimidin-6-yl)amino)-3,4-dihydroisoquinolin-2 (1H)-yl)piperidin-1-yl)methyl)piperidin-1-yl)-2-(2,6-dioxopiperidin-3-yl)isoindoline-1,3-dione]
4 | 0.1 to 10 | Cc1cccc(C)c1Nc1nn(C)c2nc(Nc3ccc4c(c3)CN(C3CCN(C[C@@H]5CCCN(c6ccc7c(c6)C(=O)N(C6CCC(=O)NC6=O)C7=O)C5)CC3)CC4)ncc12 (stereo partly drawn) [Compound 141, 5-((S)-3-((4-(7-((3-((2,6-dimethylphenyl)amino)-1-methyl-1H-pyrazolo[3,4-d]pyrimidin-6-yl)amino)-3,4-dihydroisoquinolin-2 (1H)-yl)piperidin-1-yl)methyl)piperidin-1-yl)-2-(2,6-dioxopiperidin-3-yl)isoindoline-1,3-dione]
5 | 0.1 to 10 | Cc1cccc(C)c1Nc1nn(C)c2nc(Nc3ccc4c(c3)CN(C3CCN(C[C@H]5CCN(c6ccc7c(c6)C(=O)N(C6CCC(=O)NC6=O)C7=O)C5)CC3)CC4)ncc12 (stereo partly drawn) [Compound 142, 5-((R)-3-((4-(7-((3-((2,6-dimethylphenyl)amino)-1-methyl-1H-pyrazolo[3,4-d]pyrimidin-6-yl)amino)-3,4-dihydroisoquinolin-2 (1H)-yl)piperidin-1-yl)methyl)pyrrolidin-1-yl)-2-(2,6-dioxopiperidin-3-yl)isoindoline-1,3-dione]
6 | 0.1 to 10 | Cc1cccc(C)c1Nc1nn(C)c2nc(Nc3ccc4c(c3)CN(C3CCN(C[C@@H]5CCN(c6ccc7c(c6)C(=O)N(C6CCC(=O)NC6=O)C7=O)C5)CC3)CC4)ncc12 (stereo partly drawn) [Compound 143, 5-((S)-3-((4-(7-((3-((2,6-dimethylphenyl)amino)-1-methyl-1H-pyrazolo[3,4-d]pyrimidin-6-yl)amino)-3,4-dihydroisoquinolin-2 (1H)-yl)piperidin-1-yl)methyl)pyrrolidin-1-yl)-2-(2,6-dioxopiperidin-3-yl)isoindoline-1,3-dione]
7 | 0.1 to 10 | Cc1cccc(C)c1Nc1nn(C)c2nc(Nc3ccc4c(c3)CN(C[C@@H]3CCN(c5ccc6c(c5)C(=O)N(C5CCC(=O)NC5=O)C6=O)C3)CC4)ncc12 (stereo partly drawn) [Compound 145, 5-((S)-3-((7-((3-((2,6-Dimethylphenyl)amino)-1-methyl-1H-pyrazolo[3,4-d]pyrimidin-6-yl)amino)-3,4-dihydroisoquinolin-2 (1H)-yl)methyl)pyrrolidin-1-yl)-2-(2,6-dioxopiperidin-3-yl)isoindoline-1,3-dione]
